In the first experiment the test system is 435261-313-R-J1-PDC complex spheroid viability. Nature of the experiment: Anticancer human tumor 435261-313-R-J1-PDC patient-derived colon adenocarcinoma cell line growth inhibition [GQUAD]. Conditions: second compound 0.1 µM; first compound 1 µM; hits give low values. The method in brief: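 Multi-cell-type spheroids of tumor cells with HUVEC and mesenchymal stem cells, treated with drug combinations. Concentrations descend in half-log steps from near clinical Cmax, or from 10 microM where Cmax is unknown; viability read-out.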
Take `COc1ccc([C@@H](O)c2cc(-c3ncnc4cc(N5CCOCC5)ccc34)c(F)cc2Cl)nn1` + CN(C)c1ccc(Nc2c3ccc(NC(=O)CCN4CCCC4)cc3nc3cc(NC(=O)CCN4CCCC4)ccc23)cc1: the viability, T/C is 68.9%.
Take `O=C(c1cc(Cc2n[nH]c(=O)c3ccccc23)ccc1F)N1CCN(C(=O)C2CC2)CC1` + CN(C)c1ccc(Nc2c3ccc(NC(=O)CCN4CCCC4)cc3nc3cc(NC(=O)CCN4CCCC4)ccc23)cc1: the viability, T/C was 102%.

Staying with this experiment, now noted: second compound 0.1 µM; first compound 3.16 µM; hits give low values.
With `CC(C)n1c(=O)n(C)c2cnc3cc(F)c(-c4ccc(OCCCN5CCCCC5)nc4)cc3c21` + CN(C)c1ccc(Nc2c3ccc(NC(=O)CCN4CCCC4)cc3nc3cc(NC(=O)CCN4CCCC4)ccc23)cc1, the viability, T/C was 85%.
Same read-out and setting: the result for `CC1COCCN1c1cc(-c2ccnn2C)c2ccnc(-c3ccn[nH]3)c2n1` (configuration not stated) + CN(C)c1ccc(Nc2c3ccc(NC(=O)CCN4CCCC4)cc3nc3cc(NC(=O)CCN4CCCC4)ccc23)cc1 reads 38.8%.
Still for that read-out and setting: the result for `CC1COCCN1c1cc(C2(S(C)(=N)=O)CC2)nc(-c2ccnc3[nH]ccc23)n1` (configuration not stated) + CN(C)c1ccc(Nc2c3ccc(NC(=O)CCN4CCCC4)cc3nc3cc(NC(=O)CCN4CCCC4)ccc23)cc1 reads 76.7%; that for `COc1ccc([C@@H](O)c2cc(-c3ncnc4cc(N5CCOCC5)ccc34)c(F)cc2Cl)nn1` + CN(C)c1ccc(Nc2c3ccc(NC(=O)CCN4CCCC4)cc3nc3cc(NC(=O)CCN4CCCC4)ccc23)cc1, 57.9%.
On the same count and under the same terms, the result for `O=C(c1cc(Cc2n[nH]c(=O)c3ccccc23)ccc1F)N1CCN(C(=O)C2CC2)CC1` + CN(C)c1ccc(Nc2c3ccc(NC(=O)CCN4CCCC4)cc3nc3cc(NC(=O)CCN4CCCC4)ccc23)cc1 reads 90%.

Still in this experiment, the particulars now being: second compound 0.1 µM; first compound 10 µM; hits give low values.
Turning to `CC(C)n1c(=O)n(C)c2cnc3cc(F)c(-c4ccc(OCCCN5CCCCC5)nc4)cc3c21` + CN(C)c1ccc(Nc2c3ccc(NC(=O)CCN4CCCC4)cc3nc3cc(NC(=O)CCN4CCCC4)ccc23)cc1, the viability, T/C is 34.4%.
On the same count and under the same terms, the result for `CC1COCCN1c1cc(-c2ccnn2C)c2ccnc(-c3ccn[nH]3)c2n1` (configuration not stated) + CN(C)c1ccc(Nc2c3ccc(NC(=O)CCN4CCCC4)cc3nc3cc(NC(=O)CCN4CCCC4)ccc23)cc1 reads 23.1%; that for `CC1COCCN1c1cc(C2(S(C)(=N)=O)CC2)nc(-c2ccnc3[nH]ccc23)n1` (configuration not stated) + CN(C)c1ccc(Nc2c3ccc(NC(=O)CCN4CCCC4)cc3nc3cc(NC(=O)CCN4CCCC4)ccc23)cc1, 51.8%.
Same read-out and setting: under `COc1ccc([C@@H](O)c2cc(-c3ncnc4cc(N5CCOCC5)ccc34)c(F)cc2Cl)nn1` + CN(C)c1ccc(Nc2c3ccc(NC(=O)CCN4CCCC4)cc3nc3cc(NC(=O)CCN4CCCC4)ccc23)cc1 stands 35.5%; under `O=C(c1cc(Cc2n[nH]c(=O)c3ccccc23)ccc1F)N1CCN(C(=O)C2CC2)CC1` + CN(C)c1ccc(Nc2c3ccc(NC(=O)CCN4CCCC4)cc3nc3cc(NC(=O)CCN4CCCC4)ccc23)cc1, 81.9%.

The experiment is the same for the next values; noted with them: second compound 0.316 µM; first compound 0.0316 µM; hits give low values.
As for `CC(C)n1c(=O)n(C)c2cnc3cc(F)c(-c4ccc(OCCCN5CCCCC5)nc4)cc3c21` + CN(C)c1ccc(Nc2c3ccc(NC(=O)CCN4CCCC4)cc3nc3cc(NC(=O)CCN4CCCC4)ccc23)cc1, the viability, T/C was 88.8%.
As to `CC1COCCN1c1cc(-c2ccnn2C)c2ccnc(-c3ccn[nH]3)c2n1` (configuration not stated) + CN(C)c1ccc(Nc2c3ccc(NC(=O)CCN4CCCC4)cc3nc3cc(NC(=O)CCN4CCCC4)ccc23)cc1, the viability, T/C was 71.8%.
Regarding `CC1COCCN1c1cc(C2(S(C)(=N)=O)CC2)nc(-c2ccnc3[nH]ccc23)n1` (configuration not stated) + CN(C)c1ccc(Nc2c3ccc(NC(=O)CCN4CCCC4)cc3nc3cc(NC(=O)CCN4CCCC4)ccc23)cc1, the viability, T/C is 89.4%.
Still for that read-out and setting: the result for `COc1ccc([C@@H](O)c2cc(-c3ncnc4cc(N5CCOCC5)ccc34)c(F)cc2Cl)nn1` + CN(C)c1ccc(Nc2c3ccc(NC(=O)CCN4CCCC4)cc3nc3cc(NC(=O)CCN4CCCC4)ccc23)cc1 reads 94.3%; that for `O=C(c1cc(Cc2n[nH]c(=O)c3ccccc23)ccc1F)N1CCN(C(=O)C2CC2)CC1` + CN(C)c1ccc(Nc2c3ccc(NC(=O)CCN4CCCC4)cc3nc3cc(NC(=O)CCN4CCCC4)ccc23)cc1, 109%.

Still in this experiment, the particulars now being: second compound 0.316 µM; first compound 0.1 µM; hits give low values.
On to `CC(C)n1c(=O)n(C)c2cnc3cc(F)c(-c4ccc(OCCCN5CCCCC5)nc4)cc3c21` + CN(C)c1ccc(Nc2c3ccc(NC(=O)CCN4CCCC4)cc3nc3cc(NC(=O)CCN4CCCC4)ccc23)cc1, for which the viability, T/C is 128%.
Regarding `CC1COCCN1c1cc(-c2ccnn2C)c2ccnc(-c3ccn[nH]3)c2n1` (configuration not stated) + CN(C)c1ccc(Nc2c3ccc(NC(=O)CCN4CCCC4)cc3nc3cc(NC(=O)CCN4CCCC4)ccc23)cc1, the viability, T/C was 80.7%.
On the same count and under the same terms, under `CC1COCCN1c1cc(C2(S(C)(=N)=O)CC2)nc(-c2ccnc3[nH]ccc23)n1` (configuration not stated) + CN(C)c1ccc(Nc2c3ccc(NC(=O)CCN4CCCC4)cc3nc3cc(NC(=O)CCN4CCCC4)ccc23)cc1 stands 101%; under `COc1ccc([C@@H](O)c2cc(-c3ncnc4cc(N5CCOCC5)ccc34)c(F)cc2Cl)nn1` + CN(C)c1ccc(Nc2c3ccc(NC(=O)CCN4CCCC4)cc3nc3cc(NC(=O)CCN4CCCC4)ccc23)cc1, 137%.
Consider `O=C(c1cc(Cc2n[nH]c(=O)c3ccccc23)ccc1F)N1CCN(C(=O)C2CC2)CC1` + CN(C)c1ccc(Nc2c3ccc(NC(=O)CCN4CCCC4)cc3nc3cc(NC(=O)CCN4CCCC4)ccc23)cc1, for which the viability, T/C is 92.5%.

Staying with this experiment, now noted: second compound 0.316 µM; first compound 0.316 µM; hits give low values.
`CC(C)n1c(=O)n(C)c2cnc3cc(F)c(-c4ccc(OCCCN5CCCCC5)nc4)cc3c21` + CN(C)c1ccc(Nc2c3ccc(NC(=O)CCN4CCCC4)cc3nc3cc(NC(=O)CCN4CCCC4)ccc23)cc1: the viability, T/C was 109%.
Same read-out and setting: under `CC1COCCN1c1cc(-c2ccnn2C)c2ccnc(-c3ccn[nH]3)c2n1` (configuration not stated) + CN(C)c1ccc(Nc2c3ccc(NC(=O)CCN4CCCC4)cc3nc3cc(NC(=O)CCN4CCCC4)ccc23)cc1 stands 60.4%; under `CC1COCCN1c1cc(C2(S(C)(=N)=O)CC2)nc(-c2ccnc3[nH]ccc23)n1` (configuration not stated) + CN(C)c1ccc(Nc2c3ccc(NC(=O)CCN4CCCC4)cc3nc3cc(NC(=O)CCN4CCCC4)ccc23)cc1, 89.8%; under `COc1ccc([C@@H](O)c2cc(-c3ncnc4cc(N5CCOCC5)ccc34)c(F)cc2Cl)nn1` + CN(C)c1ccc(Nc2c3ccc(NC(=O)CCN4CCCC4)cc3nc3cc(NC(=O)CCN4CCCC4)ccc23)cc1, 79.7%.
Regarding `O=C(c1cc(Cc2n[nH]c(=O)c3ccccc23)ccc1F)N1CCN(C(=O)C2CC2)CC1` + CN(C)c1ccc(Nc2c3ccc(NC(=O)CCN4CCCC4)cc3nc3cc(NC(=O)CCN4CCCC4)ccc23)cc1, the viability, T/C is 97.8%.

The viability, T/C is the result in the treated group divided by that in the control group, in per cent.

The values above are taken from PubChem BioAssay AID2060494 (Molecular Pharmacology Branch, DTP, NCI, 2025).
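Further: spheroids exposed to the agents for seven days before readout; percent of vehicle control viability with DMSO wells as 100%.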
